Measured values as given in ChEMBL document CHEMBL1201862, “PubChem BioAssay data set” (2004).
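Cells were grown in 96-well plates and exposed to each compound for 48 hours at five concentrations; endpoints were interpolated linearly between bracketing concentrations, or set to the highest concentration if not reached. Here, GI50 denotes the concentration required for 50% inhibition of growth.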 Active and inactive are the calls of the source. Rule as the data show it: active = GI50 up to about 1.1 µM and inactive = higher.

Experiments:
Assay in all cases: inhibition of tumour cell growth, NCI panel, 48 h
NCI-H226 = test system: NCI-H226
RPMI-8226 = test system: RPMI-8226
HCT-116 = test system: HCT-116
MDA-MB-231 = test system: MDA-MB-231
SR = test system: SR
EKVX = test system: EKVX
OVCAR-5 = test system: OVCAR-5
SN12C = test system: SN12C
SW-620 = test system: SW-620
A549 = test system: A549
Hs-578T = test system: Hs-578T
A498 = test system: A498
K562 = test system: K562
SNB-75 = test system: SNB-75
NCI-H23 = test system: NCI-H23
TK-10 = test system: TK-10
SF-295 = test system: SF-295
BT-549 = test system: BT-549
SK-MEL-5 = test system: SK-MEL-5
COLO 205 = test system: COLO 205
SNB-19 = test system: SNB-19
U-251 = test system: U-251
SK-MEL-28 = test system: SK-MEL-28
PC-3 = test system: PC-3
HT-29 = test system: HT-29
HL-60 = test system: HL-60
DU-145 = test system: DU-145
OVCAR-8 = test system: OVCAR-8
MOLT-4 = test system: MOLT-4
SK-MEL-2 = test system: SK-MEL-2
HCT-15 = test system: HCT-15
MDA-N = test system: MDA-N
SF-268 = test system: SF-268
NCI/ADR-RES = test system: NCI/ADR-RES
HCC 2998 = test system: HCC 2998
CCRF-CEM = test system: CCRF-CEM
M14 = test system: M14
NCI-H522 = test system: NCI-H522
IGROV-1 = test system: IGROV-1
T47D = test system: T47D
LOX IMVI = test system: LOX IMVI
KM12 = test system: KM12
UACC-257 = test system: UACC-257
SF-539 = test system: SF-539
SK-OV-3 = test system: SK-OV-3
MCF7 = test system: MCF7
MDA-MB-435 = test system: MDA-MB-435
NCI-H460 = test system: NCI-H460
786-0 = test system: 786-0
HOP-62 = test system: HOP-62
ACHN = test system: ACHN
Malme-3M = test system: Malme-3M
CAKI-1 = test system: CAKI-1
OVCAR-4 = test system: OVCAR-4
RXF 393 = test system: RXF 393
UO-31 = test system: UO-31
OVCAR-3 = test system: OVCAR-3
UACC-62 = test system: UACC-62
HOP-92 = test system: HOP-92

In the case of `COC(=O)[C@H]1C[C@H]1NC(=O)C(CC(=O)OCc1ccccc1)NC(=O)OCc1ccccc1` (stereo not given in full), the GI50 (NCI-H226) is reported as 89.5 µM (inactive), the GI50 (RPMI-8226) is reported as 19.1 µM (inactive) and the GI50 (HCT-116) is reported as 47.6 µM (inactive). The GI50 (MDA-MB-231) was > 100 µM (inactive), the GI50 (SR) was 29.8 µM (inactive) and the GI50 (EKVX) was 44.3 µM (inactive). The GI50 (OVCAR-5) was > 100 µM (inactive), the GI50 (SN12C) was > 100 µM (inactive) and the GI50 (SW-620) was > 100 µM (inactive). For the same molecule, the GI50 (A549) was 43.8 µM (inactive), the GI50 (Hs-578T) was > 100 µM (inactive) and the GI50 (A498) was 61.8 µM (inactive). The GI50 (K562) was 59.7 µM (inactive), the GI50 (SNB-75) was 36.2 µM (inactive) and the GI50 (NCI-H23) was 41.8 µM (inactive). The GI50 (TK-10) was 74.6 µM (inactive), the GI50 (SF-295) was 50.7 µM (inactive) and the GI50 (BT-549) was 23.4 µM (inactive). For the same molecule, the GI50 (SK-MEL-5) was 25.4 µM (inactive), the GI50 (COLO 205) was 24.4 µM (inactive) and the GI50 (SNB-19) was > 100 µM (inactive). For the same molecule, the GI50 (U-251) was 81.5 µM (inactive), the GI50 (SK-MEL-28) was 53.7 µM (inactive) and the GI50 (PC-3) was 35.3 µM (inactive). The GI50 (HT-29) was 39 µM (inactive), the GI50 (HL-60) was 17.9 µM (inactive) and the GI50 (DU-145) was 73.5 µM (inactive). The GI50 (OVCAR-8) was 40 µM (inactive), the GI50 (MOLT-4) was 29.2 µM (inactive) and the GI50 (SK-MEL-2) was 18.6 µM (inactive). For the same molecule, the GI50 (HCT-15) was 73.1 µM, the GI50 (MDA-N) was 60.1 µM (inactive) and the GI50 (SF-268) was 55.2 µM (inactive). For the same molecule, the GI50 (NCI/ADR-RES) was 28.3 µM (inactive), the GI50 (HCC 2998) was 88.3 µM (inactive) and the GI50 (CCRF-CEM) was 31.6 µM (inactive). For the same molecule, the GI50 (M14) was 25.7 µM (inactive), the GI50 (NCI-H522) was 40.8 µM (inactive) and the GI50 (IGROV-1) was 52.1 µM (inactive). For the same molecule, the GI50 (T47D) was 11.9 µM (inactive), the GI50 (LOX IMVI) was 83 µM (inactive) and the GI50 (KM12) was 31.6 µM (inactive). The GI50 (UACC-257) was 86.7 µM (inactive), the GI50 (SF-539) was 97.5 µM (inactive) and the GI50 (SK-OV-3) was 55 µM (inactive). The GI50 (MCF7) was 44.1 µM (inactive), the GI50 (MDA-MB-435) was 35 µM (inactive) and the GI50 (NCI-H460) was 31.2 µM (inactive). The GI50 (786-0) was > 100 µM (inactive), the GI50 (HOP-62) was > 10 µM (inactive) and the GI50 (ACHN) was 36.8 µM (inactive).

With `CN(C)CCCN1c2ccccc2CCc2cc([N+](=O)[O-])ccc21` the GI50 (NCI-H226) was 17.5 µM (inactive), the GI50 (RPMI-8226) was 18 µM (inactive) and the GI50 (HCT-116) was 15.7 µM (inactive). The GI50 (MDA-MB-231) was 14.9 µM (inactive), the GI50 (SR) was 18.7 µM (inactive) and the GI50 (Malme-3M) was 17.7 µM (inactive). For the same molecule, the GI50 (EKVX) was 20.3 µM (inactive), the GI50 (CAKI-1) was 15.5 µM (inactive) and the GI50 (OVCAR-5) was 16.5 µM (inactive). The GI50 (SN12C) was 16.1 µM (inactive), the GI50 (A549) was 19.9 µM (inactive) and the GI50 (Hs-578T) was 16.2 µM (inactive). For the same molecule, the GI50 (A498) was 12.8 µM (inactive), the GI50 (K562) was 16.9 µM (inactive) and the GI50 (SNB-75) was 12.9 µM (inactive). The GI50 (NCI-H23) was 19 µM (inactive), the GI50 (TK-10) was 14.6 µM (inactive) and the GI50 (SF-295) was 14.5 µM (inactive). The GI50 (BT-549) was 16.6 µM (inactive), the GI50 (SK-MEL-5) was 12.9 µM (inactive) and the GI50 (COLO 205) was 16.4 µM (inactive). The GI50 (OVCAR-4) was 17.7 µM (inactive), the GI50 (SNB-19) was 16.9 µM (inactive) and the GI50 (U-251) was 17.4 µM (inactive). For the same molecule, the GI50 (PC-3) was 16.7 µM (inactive), the GI50 (HT-29) was 15.3 µM (inactive) and the GI50 (DU-145) was 18.2 µM (inactive). For the same molecule, the GI50 (OVCAR-8) was 15.7 µM (inactive), the GI50 (MOLT-4) was 15.8 µM (inactive) and the GI50 (SK-MEL-2) was 20 µM (inactive). For the same molecule, the GI50 (RXF 393) was 12.6 µM (inactive), the GI50 (UO-31) was 14.9 µM (inactive) and the GI50 (HCT-15) was 18.5 µM. The GI50 (OVCAR-3) was 17.9 µM (inactive), the GI50 (MDA-N) was 15 µM (inactive) and the GI50 (SF-268) was 14.7 µM (inactive). For the same molecule, the GI50 (NCI/ADR-RES) was 17.2 µM (inactive), the GI50 (HCC 2998) was 12.2 µM (inactive) and the GI50 (M14) was 16.3 µM (inactive). The GI50 (NCI-H522) was 15.7 µM (inactive), the GI50 (IGROV-1) was 15.6 µM (inactive) and the GI50 (T47D) was 17.1 µM (inactive). For the same molecule, the GI50 (LOX IMVI) was 14.4 µM (inactive), the GI50 (KM12) was 17.5 µM (inactive) and the GI50 (UACC-62) was 14.3 µM (inactive). For the same molecule, the GI50 (UACC-257) was 15 µM (inactive), the GI50 (SF-539) was 15.1 µM (inactive) and the GI50 (MCF7) was 16.8 µM (inactive). The GI50 (MDA-MB-435) was 15.8 µM (inactive), the GI50 (NCI-H460) was 15 µM (inactive) and the GI50 (786-0) was 15.2 µM (inactive). For the same molecule, the GI50 (HOP-62) was 15.8 µM (inactive) and the GI50 (ACHN) was 16.3 µM (inactive).

In the case of `COc1cc2c(cc1OC)C1C(O)C(OC)C(Br)C3(Br)CCN(C2)C13` (stereo not given), the GI50 (NCI-H226) is reported as > 100 µM (inactive), the GI50 (RPMI-8226) is reported as > 100 µM (inactive) and the GI50 (HCT-116) is reported as > 100 µM (inactive). The GI50 (MDA-MB-231) was > 100 µM (inactive), the GI50 (Malme-3M) was 42.6 µM (inactive) and the GI50 (EKVX) was > 100 µM (inactive). The GI50 (CAKI-1) was > 100 µM (inactive), the GI50 (OVCAR-5) was > 100 µM (inactive) and the GI50 (SN12C) was > 100 µM (inactive). For the same molecule, the GI50 (SW-620) was > 100 µM (inactive), the GI50 (A549) was > 100 µM (inactive) and the GI50 (Hs-578T) was > 100 µM (inactive). The GI50 (A498) was > 100 µM (inactive), the GI50 (SNB-75) was 78.9 µM (inactive) and the GI50 (NCI-H23) was > 100 µM (inactive). The GI50 (TK-10) was > 100 µM (inactive), the GI50 (SF-295) was > 100 µM (inactive) and the GI50 (BT-549) was > 100 µM (inactive). The GI50 (SK-MEL-5) was > 100 µM (inactive), the GI50 (COLO 205) was > 100 µM (inactive) and the GI50 (OVCAR-4) was > 100 µM (inactive). For the same molecule, the GI50 (SNB-19) was 46.2 µM (inactive), the GI50 (U-251) was 47.1 µM (inactive) and the GI50 (SK-MEL-28) was > 100 µM (inactive). The GI50 (PC-3) was > 100 µM (inactive), the GI50 (HT-29) was > 100 µM (inactive) and the GI50 (HL-60) was > 100 µM (inactive). For the same molecule, the GI50 (DU-145) was > 100 µM (inactive), the GI50 (OVCAR-8) was 41.3 µM (inactive) and the GI50 (MOLT-4) was 54 µM (inactive). The GI50 (SK-MEL-2) was > 100 µM (inactive), the GI50 (RXF 393) was 18.5 µM (inactive) and the GI50 (HOP-92) was 15.1 µM (inactive). The GI50 (UO-31) was > 100 µM (inactive), the GI50 (HCT-15) was greater than 100 µM and the GI50 (OVCAR-3) was > 100 µM (inactive). For the same molecule, the GI50 (MDA-N) was > 100 µM (inactive), the GI50 (SF-268) was 9.04 µM (inactive) and the GI50 (NCI/ADR-RES) was > 100 µM (inactive). The GI50 (HCC 2998) was 70.3 µM (inactive), the GI50 (CCRF-CEM) was > 100 µM (inactive) and the GI50 (M14) was > 100 µM (inactive). For the same molecule, the GI50 (NCI-H522) was 50.8 µM (inactive), the GI50 (IGROV-1) was > 100 µM (inactive) and the GI50 (T47D) was 84.1 µM (inactive). The GI50 (KM12) was 94.8 µM (inactive), the GI50 (UACC-62) was > 100 µM (inactive) and the GI50 (UACC-257) was > 100 µM (inactive). The GI50 (SF-539) was > 100 µM (inactive), the GI50 (SK-OV-3) was > 100 µM (inactive) and the GI50 (MCF7) was > 100 µM (inactive). The GI50 (MDA-MB-435) was > 100 µM (inactive), the GI50 (NCI-H460) was 56.6 µM (inactive) and the GI50 (786-0) was > 100 µM (inactive). The GI50 (HOP-62) was > 100 µM (inactive) and the GI50 (ACHN) was > 100 µM (inactive).
